Assay results from PMC12281424, “A Rac-specific competitive inhibitor of guanine nucleotide binding reduces metastasis in triple-negative breast cancer” (Cell Reports Medicine, 2025).
Where “and” joins values, the source holds several entries; their conditions need not be identical. Equal values may be shown once.

Key:
[1] = Ames fluctuation test (7th group); assay type: cell-based
Text: Data S3. Ames-fluctuation assay-A41.
Test Concentration Count Positive Significance Fisher Exact Test

LIMK2(h) = LIMK2(h) (Homo sapiens, UniProt P53671); experiment: Kinase Profiler; assay type: biochemical
Method: (§1) The kinase profiler was performed by the company Eurofins (Discovery, Panlab and Cerep).

MLCK(h) = MLCK(h) (Homo sapiens, UniProt Q15746); experiment: Kinase Profiler; assay type: biochemical
Method: (§2) Blood cell counts, kinase profiler, safety screen, bacterial cytotoxicity, Ames, micronucleus assays were performed by the company Eurofins (France). The kinase profiler was performed by the company Eurofins (Discovery, Panlab and Cerep).

Adrenergic α2A = Adrenergic α2A (Homo sapiens, UniProt P08913); experiment: Safety screen; assay type: binding
Chain of Adrenergic α2A (P08913 whole entry): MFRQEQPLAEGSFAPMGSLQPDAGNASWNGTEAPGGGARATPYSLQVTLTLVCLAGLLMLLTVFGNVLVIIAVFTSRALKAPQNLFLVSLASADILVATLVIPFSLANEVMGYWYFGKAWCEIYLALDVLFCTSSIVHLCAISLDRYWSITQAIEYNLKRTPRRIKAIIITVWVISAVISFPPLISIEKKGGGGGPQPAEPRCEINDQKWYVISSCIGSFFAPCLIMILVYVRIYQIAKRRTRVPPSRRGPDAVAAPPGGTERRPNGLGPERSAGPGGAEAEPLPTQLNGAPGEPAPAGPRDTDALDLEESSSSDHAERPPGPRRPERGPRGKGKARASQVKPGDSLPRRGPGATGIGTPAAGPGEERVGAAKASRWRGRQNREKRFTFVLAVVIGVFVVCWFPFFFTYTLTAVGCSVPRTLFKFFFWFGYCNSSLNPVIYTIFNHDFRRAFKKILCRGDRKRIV
Method: (§3) Blood cell counts, kinase profiler, safety screen, bacterial cytotoxicity, Ames, micronucleus assays were performed by the company Eurofins (France).

[2] = target: Transporter, Serotonin (5- Hydroxytryptamine) (SERT) (Homo sapiens, UniProt P31645); experiment: Safety screen; assay type: binding
Method: as §3

TAO3(h) = TAO3(h) (Homo sapiens, UniProt Q9H2K8); experiment: Kinase Profiler; assay type: biochemical
Method: as §2

Androgen (Testosterone) = Androgen (Testosterone) (Homo sapiens, UniProt P10275); experiment: Safety screen; assay type: binding
Method: as §2

CaMKI(h) = CaMKI(h) (Homo sapiens, UniProt Q14012); experiment: Kinase Profiler; assay type: biochemical
Method: as §2

NUAK2(h) = NUAK2(h) (Homo sapiens, UniProt Q9H093); experiment: Kinase Profiler; assay type: biochemical
Method: as §1

Flt1(h) = Flt1(h) (Homo sapiens, UniProt P17948); experiment: Kinase Profiler; assay type: biochemical
Method: as §1

PKCα(h) = PKCα(h) (Homo sapiens, UniProt P17252); experiment: Kinase Profiler; assay type: biochemical
Method: as §1

ALK(h) = ALK(h) (Homo sapiens, UniProt Q9UM73); experiment: Kinase Profiler; assay type: biochemical
Chain of ALK(h) (Q9UM73 19-1620): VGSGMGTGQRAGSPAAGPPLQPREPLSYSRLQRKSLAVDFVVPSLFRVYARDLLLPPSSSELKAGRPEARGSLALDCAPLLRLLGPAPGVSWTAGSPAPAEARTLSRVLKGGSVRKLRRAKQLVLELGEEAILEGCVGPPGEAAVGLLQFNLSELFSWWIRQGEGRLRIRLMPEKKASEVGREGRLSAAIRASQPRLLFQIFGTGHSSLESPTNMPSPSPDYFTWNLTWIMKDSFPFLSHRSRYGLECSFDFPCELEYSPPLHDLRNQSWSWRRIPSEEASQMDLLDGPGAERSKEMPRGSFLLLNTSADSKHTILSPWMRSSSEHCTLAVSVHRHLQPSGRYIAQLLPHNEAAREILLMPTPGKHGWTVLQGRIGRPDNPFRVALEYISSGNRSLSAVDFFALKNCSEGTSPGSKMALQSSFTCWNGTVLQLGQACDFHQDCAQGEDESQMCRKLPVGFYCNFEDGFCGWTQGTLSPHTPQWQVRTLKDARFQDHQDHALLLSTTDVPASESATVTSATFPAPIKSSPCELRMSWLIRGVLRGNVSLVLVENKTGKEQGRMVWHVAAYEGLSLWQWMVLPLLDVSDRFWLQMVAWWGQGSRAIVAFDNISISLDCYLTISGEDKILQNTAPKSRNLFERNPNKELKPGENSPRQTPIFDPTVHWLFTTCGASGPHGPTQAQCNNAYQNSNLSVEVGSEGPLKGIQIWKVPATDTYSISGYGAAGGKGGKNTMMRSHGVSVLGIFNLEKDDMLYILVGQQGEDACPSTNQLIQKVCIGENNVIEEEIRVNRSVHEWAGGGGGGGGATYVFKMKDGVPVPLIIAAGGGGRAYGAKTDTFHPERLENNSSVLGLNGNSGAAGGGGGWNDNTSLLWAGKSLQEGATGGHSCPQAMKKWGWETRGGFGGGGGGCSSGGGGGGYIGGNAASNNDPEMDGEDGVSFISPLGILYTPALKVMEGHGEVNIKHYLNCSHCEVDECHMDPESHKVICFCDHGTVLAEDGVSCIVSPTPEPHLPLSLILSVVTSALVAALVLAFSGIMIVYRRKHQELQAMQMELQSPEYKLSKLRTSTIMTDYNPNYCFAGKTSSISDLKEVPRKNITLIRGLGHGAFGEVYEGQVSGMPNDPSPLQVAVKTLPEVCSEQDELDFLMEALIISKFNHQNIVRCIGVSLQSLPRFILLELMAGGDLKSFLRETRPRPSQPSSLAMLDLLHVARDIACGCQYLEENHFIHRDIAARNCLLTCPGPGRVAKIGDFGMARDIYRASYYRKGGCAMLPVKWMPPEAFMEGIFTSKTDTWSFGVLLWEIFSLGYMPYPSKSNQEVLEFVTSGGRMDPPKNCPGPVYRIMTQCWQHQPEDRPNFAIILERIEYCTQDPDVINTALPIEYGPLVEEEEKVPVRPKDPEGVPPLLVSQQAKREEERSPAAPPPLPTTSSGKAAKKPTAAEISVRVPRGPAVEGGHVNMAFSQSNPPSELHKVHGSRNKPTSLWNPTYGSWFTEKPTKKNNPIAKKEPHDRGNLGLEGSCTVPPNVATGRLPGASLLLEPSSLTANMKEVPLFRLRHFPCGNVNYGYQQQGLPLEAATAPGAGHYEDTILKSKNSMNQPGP
Method: as §1

DMPK(h) = DMPK(h) (Homo sapiens, UniProt Q09013); experiment: Kinase Profiler; assay type: biochemical
Method: as §2

[3] = system: GABAA, Chloride Channel, TBOB; experiment: Safety screen; assay type: binding, rat
Method: as §3

PI3KC2a(h) = PI3KC2a(h) (Homo sapiens, UniProt O00443); experiment: Kinase Profiler; assay type: biochemical
Method: as §1

TA1537 = experiment: Bacterial cytotoxicity; assay type: cell-based
Text: Data S2. Bacterial cytotoxicity of A41.
Test Concentration %Effect Cytotoxicity (% of control) […]
Bacterial cytotoxicity (TA1537 - S9)

TTBK1(h) = TTBK1(h) (Homo sapiens, UniProt Q5TCY1); experiment: Kinase Profiler; assay type: biochemical
Method: as §1

Abl(T315I)(h) = Abl(T315I)(h) (Homo sapiens, UniProt P00519, T315I); experiment: Kinase Profiler; assay type: biochemical
Method: as §1

Pim-3(h) = Pim-3(h) (Homo sapiens, UniProt Q86V86); experiment: Kinase Profiler; assay type: biochemical
Method: as §2

EGFR(h) = EGFR(h) (Homo sapiens, UniProt P00533); experiment: Kinase Profiler; assay type: biochemical
Chain of EGFR(h) (P00533 25-1210): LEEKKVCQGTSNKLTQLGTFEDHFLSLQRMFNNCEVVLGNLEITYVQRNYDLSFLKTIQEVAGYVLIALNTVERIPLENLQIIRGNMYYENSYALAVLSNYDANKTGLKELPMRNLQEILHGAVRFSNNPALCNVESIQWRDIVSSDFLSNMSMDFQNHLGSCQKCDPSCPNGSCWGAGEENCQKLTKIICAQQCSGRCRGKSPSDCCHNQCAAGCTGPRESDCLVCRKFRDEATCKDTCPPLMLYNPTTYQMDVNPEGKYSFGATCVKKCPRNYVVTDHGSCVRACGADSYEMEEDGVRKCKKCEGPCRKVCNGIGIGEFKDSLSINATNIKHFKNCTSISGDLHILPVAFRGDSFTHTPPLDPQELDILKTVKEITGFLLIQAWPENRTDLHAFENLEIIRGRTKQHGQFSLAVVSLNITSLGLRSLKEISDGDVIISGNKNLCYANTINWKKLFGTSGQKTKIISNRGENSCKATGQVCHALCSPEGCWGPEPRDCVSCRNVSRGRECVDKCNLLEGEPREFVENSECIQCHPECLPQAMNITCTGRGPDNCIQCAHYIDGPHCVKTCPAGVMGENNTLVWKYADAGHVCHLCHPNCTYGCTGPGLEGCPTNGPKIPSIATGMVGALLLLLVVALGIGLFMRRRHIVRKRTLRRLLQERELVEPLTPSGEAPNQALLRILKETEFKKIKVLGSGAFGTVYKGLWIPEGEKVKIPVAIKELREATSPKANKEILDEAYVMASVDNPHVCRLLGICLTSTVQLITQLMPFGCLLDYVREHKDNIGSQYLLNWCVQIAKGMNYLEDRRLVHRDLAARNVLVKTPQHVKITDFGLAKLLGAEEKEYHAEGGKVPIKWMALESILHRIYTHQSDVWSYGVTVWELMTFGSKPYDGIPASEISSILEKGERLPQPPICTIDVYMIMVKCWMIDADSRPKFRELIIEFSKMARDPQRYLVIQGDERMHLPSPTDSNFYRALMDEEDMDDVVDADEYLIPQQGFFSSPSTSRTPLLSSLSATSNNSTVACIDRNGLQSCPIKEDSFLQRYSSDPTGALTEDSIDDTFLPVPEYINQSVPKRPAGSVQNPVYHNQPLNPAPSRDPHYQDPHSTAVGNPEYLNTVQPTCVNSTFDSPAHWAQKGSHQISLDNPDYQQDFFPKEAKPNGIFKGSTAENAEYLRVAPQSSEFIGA
Method: as §1

CDKL3(h) = CDKL3(h) (Homo sapiens, UniProt Q8IVW4); experiment: Kinase Profiler; assay type: biochemical
Chain of CDKL3(h) (Q8IVW4 whole entry): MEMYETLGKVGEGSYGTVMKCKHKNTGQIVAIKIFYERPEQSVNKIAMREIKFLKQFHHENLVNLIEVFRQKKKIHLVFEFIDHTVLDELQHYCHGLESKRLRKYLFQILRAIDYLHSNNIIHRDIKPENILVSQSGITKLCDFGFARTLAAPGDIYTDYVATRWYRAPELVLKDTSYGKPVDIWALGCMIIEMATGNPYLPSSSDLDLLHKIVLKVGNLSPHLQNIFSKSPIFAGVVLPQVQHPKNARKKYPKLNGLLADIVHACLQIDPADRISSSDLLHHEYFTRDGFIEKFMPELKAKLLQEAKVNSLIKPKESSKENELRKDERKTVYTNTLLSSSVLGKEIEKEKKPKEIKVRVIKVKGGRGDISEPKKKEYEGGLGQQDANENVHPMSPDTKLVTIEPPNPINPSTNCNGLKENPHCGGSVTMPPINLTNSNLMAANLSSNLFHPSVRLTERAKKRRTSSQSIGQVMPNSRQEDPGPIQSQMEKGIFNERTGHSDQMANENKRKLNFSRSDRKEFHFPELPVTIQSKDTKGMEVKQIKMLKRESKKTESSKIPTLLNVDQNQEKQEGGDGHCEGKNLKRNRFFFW
Method: as §1

CDK16/cyclinY(h) = CDK16/cyclinY(h) (Homo sapiens, UniProt Q00536); experiment: Kinase Profiler; assay type: biochemical
Chain of CDK16/cyclinY(h) (Q00536 whole entry): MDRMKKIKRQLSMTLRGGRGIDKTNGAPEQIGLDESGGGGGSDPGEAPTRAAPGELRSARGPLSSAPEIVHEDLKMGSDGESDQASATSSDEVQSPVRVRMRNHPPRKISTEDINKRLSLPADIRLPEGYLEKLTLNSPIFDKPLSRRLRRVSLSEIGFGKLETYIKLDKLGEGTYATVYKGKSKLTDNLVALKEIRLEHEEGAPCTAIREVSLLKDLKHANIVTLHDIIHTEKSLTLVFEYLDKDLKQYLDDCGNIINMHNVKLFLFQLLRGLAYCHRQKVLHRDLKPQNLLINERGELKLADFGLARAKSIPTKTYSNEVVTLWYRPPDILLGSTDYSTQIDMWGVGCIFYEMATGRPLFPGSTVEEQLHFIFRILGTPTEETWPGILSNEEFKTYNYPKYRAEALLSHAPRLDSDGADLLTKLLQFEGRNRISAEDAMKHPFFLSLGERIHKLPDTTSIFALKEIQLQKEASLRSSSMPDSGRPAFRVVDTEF
Chain of CDK16/cyclinY(h) (Q8ND76 whole entry partner): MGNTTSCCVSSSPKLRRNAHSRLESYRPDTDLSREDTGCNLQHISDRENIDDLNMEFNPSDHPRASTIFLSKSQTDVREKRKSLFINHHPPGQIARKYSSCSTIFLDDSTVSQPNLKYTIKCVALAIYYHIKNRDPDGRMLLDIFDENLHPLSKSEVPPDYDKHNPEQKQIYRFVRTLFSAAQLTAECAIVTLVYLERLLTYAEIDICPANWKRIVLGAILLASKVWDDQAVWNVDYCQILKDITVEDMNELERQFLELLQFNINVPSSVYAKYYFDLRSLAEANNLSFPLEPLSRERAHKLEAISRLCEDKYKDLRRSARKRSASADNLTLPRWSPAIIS
Method: as §2

CLK4(h) = CLK4(h) (Homo sapiens, UniProt Q9HAZ1); experiment: Kinase Profiler; assay type: biochemical
Method: as §1

PrKX(h) = PrKX(h) (Homo sapiens, UniProt P51817); experiment: Kinase Profiler; assay type: biochemical
Chain of PrKX(h) (P51817 whole entry): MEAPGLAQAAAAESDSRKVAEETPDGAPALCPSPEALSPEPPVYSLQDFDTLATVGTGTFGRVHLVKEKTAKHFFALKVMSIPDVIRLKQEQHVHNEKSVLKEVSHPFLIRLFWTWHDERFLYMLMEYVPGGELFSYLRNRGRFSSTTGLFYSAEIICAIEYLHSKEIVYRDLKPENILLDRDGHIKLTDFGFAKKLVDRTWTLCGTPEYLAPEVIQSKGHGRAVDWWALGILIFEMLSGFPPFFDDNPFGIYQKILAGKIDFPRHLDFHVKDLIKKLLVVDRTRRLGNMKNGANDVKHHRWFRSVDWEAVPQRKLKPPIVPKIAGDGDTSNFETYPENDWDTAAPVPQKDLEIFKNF
Method: as §1

Src(T341M)(h) = Src(T341M)(h) (Homo sapiens, UniProt P12931, T341M); experiment: Kinase Profiler; assay type: biochemical
Method: as §1

ErbB4(h) = ErbB4(h) (Homo sapiens, UniProt Q15303); experiment: Kinase Profiler; assay type: biochemical
Method: as §1

Abl(Y253F)(h) = Abl(Y253F)(h) (Homo sapiens, UniProt P00519, Y253F); experiment: Kinase Profiler; assay type: biochemical
Method: as §1

CaMKIIβ(h) = CaMKIIβ(h) (Homo sapiens, UniProt Q13554); experiment: Kinase Profiler; assay type: biochemical
Method: as §1

[4] = target: ATPase, Na+/K+, Heart, Pig (Sus scrofa, UniProt P05024); experiment: Safety screen; assay type: biochemical
Method: as §2

[5] = target: Serotonin (5-Hydroxytryptamine) 5-HT3 (Homo sapiens, UniProt P46098); experiment: Safety screen; assay type: binding
Method: as §3

Glutamate, NMDA, Glycine = experiment: Safety screen; assay type: binding, rat
Method: as §2

[6] = system: Protein Ser/Thr Kinase, PKC, Non- Selective; experiment: Safety screen; assay type: biochemical, rat
Method: as §1

TNIK(h) = TNIK(h) (Homo sapiens, UniProt Q9UKE5); experiment: Kinase Profiler; assay type: biochemical
Method: as §1

PAK2(h) = PAK2(h) (Homo sapiens, UniProt Q13177); experiment: Kinase Profiler; assay type: biochemical
Method: as §2

TAO1(h) = TAO1(h) (Homo sapiens, UniProt Q7L7X3); experiment: Kinase Profiler; assay type: biochemical
Method: as §2

MRCKβ(h) = MRCKβ(h) (Homo sapiens, UniProt Q9Y5S2); experiment: Kinase Profiler; assay type: biochemical
Method: as §1

With COc1ccc(OC)c(NS(=O)(=O)c2ccc(NC(=O)CCSc3ccc(C)cc3)cc2)c1 [Compound A41] as the molecule, how does the “Count Positive (# of wells)” value ([1]; 1.0E-04 M) read?
The value was 1.

And the “Count Positive (# of wells)” value ([1]; 1.0E-05 M)?
Its value is 0.

What about the “Count Positive (# of wells)” value ([1]; 5.0E-05 M) of the same molecule?
The value was 0.

What about the “Count Positive (# of wells)” value ([1]; 5.0E-06 M) of the same molecule?
Its value is 1.

And the “Activity(%)” value (LIMK2(h))?
The value was 115%.

What about the “Activity(%)” value (MLCK(h)) of the same molecule?
Its value is 103%.

What about the “% inh.” value (Adrenergic α2A) of the same molecule?
Its value is 29%.

And the “% inh.” value [2]?
Its value is -3%.

What about the “Activity(%)” value (TAO3(h)) of the same molecule?
Its value is 97%.

And the “% inh.” value (Androgen (Testosterone))?
Its value is 10%.

What about the “Activity(%)” value (CaMKI(h)) of the same molecule?
Its value is 114%.

And the “Activity(%)” value (NUAK2(h))?
Its value is 110%.

What about the “Activity(%)” value (Flt1(h)) of the same molecule?
Its value is 103%.

And the “Activity(%)” value (PKCα(h))?
The value was 105%.

And the “Activity(%)” value (ALK(h))?
Its value is 82%.

What about the “Activity(%)” value (DMPK(h)) of the same molecule?
The value was 98%.

What about the “% inh.” value [3] of the same molecule?
Its value is 45%.

What about the “Activity(%)” value (PI3KC2a(h)) of the same molecule?
Its value is 95%.

And the “%Effect, single replicates (1st, 2nd, 3rd)” value (“%Effect, single replicates” for short) (TA1537; - S9, 1.0E-04 M)?
Its value is 222.5% and 214.4% and 229.2%.

And the “Cytotoxicity (% of control), Mean %Effect” value (from here on “Cytotoxicity (% of control)”) (TA1537; - S9, 1.0E-04 M)?
Its value is 222.0%.

What about the “%Effect, single replicates” value (TA1537; - S9, 1.0E-05 M) of the same molecule?
The value was 109.9% and 108.6% and 111.2%.

And the “Cytotoxicity (% of control)” value (TA1537; - S9, 1.0E-05 M)?
The value was 109.9%.

What about the “%Effect, single replicates” value (TA1537; - S9, 1.2E-06 M) of the same molecule?
The value was 109.9% and 108.6% and 101.9%.

And the “Cytotoxicity (% of control)” value (TA1537; - S9, 1.2E-06 M)?
The value was 106.8%.

What about the “%Effect, single replicates” value (TA1537; - S9, 2.5E-05 M) of the same molecule?
The value was 128.7% and 115.3% and 112.6%.

What about the “Cytotoxicity (% of control)” value (TA1537; - S9, 2.5E-05 M) of the same molecule?
The value was 118.8%.

And the “%Effect, single replicates” value (TA1537; - S9, 2.5E-06 M)?
Its value is 111.2% and 104.5% and 99.2%.

And the “Cytotoxicity (% of control)” value (TA1537; - S9, 2.5E-06 M)?
The value was 105.0%.

What about the “%Effect, single replicates” value (TA1537; - S9, 5.0E-05 M) of the same molecule?
Its value is 162.2% and 150.1% and 148.8%.

And the “Cytotoxicity (% of control)” value (TA1537; - S9, 5.0E-05 M)?
The value was 153.7%.

What about the “%Effect, single replicates” value (TA1537; - S9, 5.0E-06 M) of the same molecule?
The value was 116.6% and 111.2% and 100.5%.

What about the “Cytotoxicity (% of control)” value (TA1537; - S9, 5.0E-06 M) of the same molecule?
Its value is 109.4%.

What about the “%Effect, single replicates” value (TA1537; - S9, 6.0E-07 M) of the same molecule?
The value was 107.2% (2×) and 115.3%.

What about the “Cytotoxicity (% of control)” value (TA1537; - S9, 6.0E-07 M) of the same molecule?
The value was 109.9%.

And the “Activity(%)” value (TTBK1(h))?
Its value is 103%.

What about the “Activity(%)” value (Abl(T315I)(h)) of the same molecule?
Its value is 117%.

And the “Activity(%)” value (Pim-3(h))?
The value was 101%.

And the “Activity(%)” value (EGFR(h))?
Its value is 115%.

And the “Activity(%)” value (CDKL3(h))?
The value was 103%.

And the “Activity(%)” value (CDK16/cyclinY(h))?
The value was 107%.

What about the “Activity(%)” value (CLK4(h)) of the same molecule?
Its value is 102%.

And the “Activity(%)” value (PrKX(h))?
Its value is 98%.

What about the “Activity(%)” value (Src(T341M)(h)) of the same molecule?
Its value is 89%.

What about the “Activity(%)” value (ErbB4(h)) of the same molecule?
The value was 108%.

What about the “Activity(%)” value (Abl(Y253F)(h)) of the same molecule?
Its value is 102%.

And the “Activity(%)” value (CaMKIIβ(h))?
The value was 112%.

And the “% inh.” value [4]?
The value was -15%.

And the “% inh.” value [5]?
The value was -2%.

What about the “% inh.” value (Glutamate, NMDA, Glycine) of the same molecule?
Its value is 7%.

What about the “% inh.” value [6] of the same molecule?
Its value is 48%.

What about the “Activity(%)” value (TNIK(h)) of the same molecule?
Its value is 94%.

And the “Activity(%)” value (PAK2(h))?
Its value is 110%.

What about the “Activity(%)” value (TAO1(h)) of the same molecule?
Its value is 118%.

What about the “Activity(%)” value (MRCKβ(h)) of the same molecule?
Its value is 102%.
